This is an account of results in patent US20170119742A1, “MEDICAMENT FOR PREVENTING AND/OR TREATING STRESS DISEASES” (ONO PHARMACEUTICAL CO., LTD., priority 2014, published 2017).

SMILES strings stand for the structures.

Data set [1] concerns olfactory bulb isolated rats. As to the kind of experiment: Antidepressant effect: excessive emotional reactivity in olfactory bulb isolated rats. Format: in vivo. As to conditions: rat, 0.3, 1 and 3 mg/kg oral once daily, before and after administration on day 7, p<0.01 Steel test. The text has this: Male Crlj: WI rats (Charles River Laboratories Japan, Inc., at the time of surgery: 11 weeks old) were used to prepare an olfactory bulb isolated rat in accordance with Yamaguchi et al. method (Journal of the Pharmaceutical Society of Japan, Vol. 130, p. 175-183, 2007). The head of the anesthetized rat with pentobarbital sodium was fixed to brain stereotaxic apparatus (ASI Instruments Inc., NARISHIGE). After incising the scalp, holes to the left and right olfactory bulb region of the skull (7 mm forward and 1.8 mm laterally from bregma) were made with a dental drill. After aspirating and removing the left and right olfactory bulb by an aspirator coupled to an oral sonde which except for the tip, scalp was sutured. […] After 14 days of surgery, the excessive emotional reactivity was evaluated in accordance with the method of Gomita et al. (Journal of the Pharmaceutical Society of Japan, Vol. 82, p. 267-292, 1983). […]
A vehicle (physiological saline solution containing 0.5% Tween 80) or the compound of the present invention (0.3, 1 or 3 mg/kg) was orally administered to the olfactory bulb isolated rat repeatedly once daily for 8 days. […] On day 7, the excessive emotional reactivity was evaluated before and 1 hour after the administration.

The subject of data set [2] is female diarrhea-type IBS patients. As to the kind of experiment: Efficacy trial in humans 1: double-blind parallel-group study in IBS. Format: in vivo, human. The conditions noted are these: for Daily responder (%), Abdominal Pain and Stool Consistency: placebo 6.5; for Daily responder (%), Stool Consistency: placebo 10.9; for Weekly responder (%), Abdominal Pain and Stool Consistency: placebo 21.7; for Weekly responder (%), Stool Consistency: placebo 28.3; for Daily responder (%), Abdominal Pain: placebo 37; for Weekly responder (%), Abdominal Pain: placebo 39.1; for increase in the number of days per week with no abdominal pain: 4th week of treatment period, placebo 0.61. Here is the method:
As a clinical trail, a double-bind, parallel-group study was conducted under the following conditions in female diarrhea-type IBS patients.
PURPOSE: Confirmation of efficacy against clinical symptoms of IBS METHODS: This study was conducted at 49 centers in the United States and recruited 200 patients (aged 18-65 years) with female diarrhea-type IBS patients according to Rome III criteria (Gastroenterology, Vol. 130, p. 1480-1491, 2006). Patients were randomly assigned to any of the following three treatment groups (1:1:1 ratio) and received orally administration once-daily for 4 weeks. Patients recorded their IBS symptoms on a daily basis in an e-diary during a 2-week pre-treatment, the 4-week treatment period and for 4 weeks post-treatment. Safety monitoring was performed throughout the study. The primary endpoints were change from baseline (pre-treatment period) to week 4 in stool consistency (Bristol Stool Scale; BSS), stool frequency and abdominal pain (Numerical Rating Scale; NRS). Secondary endpoints included FDA responder analyses (Guidance for Industry Irritable Bowel Syndrome—Clinical Evaluation of Drugs for Treatment).
(1) Placebo group (2) The compound of the present invention (20 mg treatment) group (3) The compound of the present invention (60 mg treatment) group ENDPOINTS: IBS symptoms (abdominal pain, stool consistency, stool frequency, faecal urgency and severity), QOL, psychological symptoms, safety, pharmacokinetics and biomarker RESULTS: Baseline value of patient layer and each of the parameters (stool consistency, stool frequency and abdominal pain) were similar in each treatment group. […] Further, a greater percentage of patients met responder criteria among patients in 60 mg treatment group of the compound of the present invention compared to placebo treatment group (Table 3, FIG. 10 and FIG. 11). On the other hand, the increase in the number of days per week with no abdominal pain at the 4th week of treatment period were 0.61 in placebo treatment group, 1.16 in 20 mg treatment group and 1.51 in 60 mg treatment group.
The weekly responder of abdominal pain and stool consistency was defined as a patient who met the both criteria of the above-mentioned abdominal pain score and stool consistency.

Where [3] appears, read: 20 mg oral once daily 4 weeks, n = 41.
The mark [4] stands for this setting: 60 mg oral once daily 4 weeks, n = 45.

As for `COc1cc(Cl)ccc1[C@H]1c2[nH]c3cccc(F)c3c2C2(CC2)CN1C(C)=O` [the compound of the present invention, (1S)-2-acetyl-1-(4-chloro-2-methoxyphenyl)-5-fluoro-1,2,3,9-tetrahydrospiro[β-carboline-4,1′-cyclopropane]], in data set [1], the “excessive emotional score compared with the vehicle control group” value is listed as “significantly lower”. The “tolerability and safety profile” value in data set [2] (20 mg or 60 mg oral once daily for 4 weeks) was “well-tolerated and had a favourable safety profile”. Further, in data set [2] (setting [3]), the “Daily responder (%), Abdominal Pain and Stool Consistency” value is 14.6%; the “Daily responder (%), Stool Consistency” value stood at 17.1%; the “Weekly responder (%), Abdominal Pain and Stool Consistency” value was 22%; the “Weekly responder (%), Stool Consistency” value is 41.5%. In data set [2] (setting [3]), the “Daily responder (%), Abdominal Pain” value is recorded as 36.6% and the “Weekly responder (%), Abdominal Pain” value amounted to 39%. In addition, in data set [2] (setting [4]), the “Daily responder (%), Abdominal Pain and Stool Consistency” value is listed as 20%; the “Daily responder (%), Stool Consistency” value worked out at 26.7%; the “Weekly responder (%), Abdominal Pain and Stool Consistency” value turned out to be 37.8%; the “Weekly responder (%), Stool Consistency” value is recorded as 48.9%. Moreover, in data set [2] (setting [4]), the “Daily responder (%), Abdominal Pain” value was found to be 53.3% and the “Weekly responder (%), Abdominal Pain” value is reported as 57.8%. In addition, the “number of days per week with at least one stool having a BSS classification of 6 or 7, vs placebo” value in data set [2] (60 mg treatment group, over the 4-week treatment period (FIG. 8)) is “Improvements over placebo treatment group”. Also, the “average weekly score of the worst abdominal pain experienced during the past 24 hours, vs placebo” value in data set [2] (60 mg treatment group, over the 4-week treatment period (FIG. 9)) is “Improvements over placebo treatment group”. In addition, the “increase in the number of days per week with no abdominal pain” value in data set [2] (20 mg treatment group) is reported as 1.16. Further, in data set [2] (60 mg treatment group), the “increase in the number of days per week with no abdominal pain” value worked out at 1.51.
